Experiments:
NfkB = NfkB reporter activity in THP1-Dual cells (QuantiBlue); assay type: cell-based, human; details: 24 hours
Description: (§1) HeLa cervical cancer cells were grown in either DMEM containing 10% FBS (standard culture conditions), or in PBS (nutrient-deprivation) for 48 hours. Conditioned media from each condition was then transferred to THP1-Dual cells in the presence of 300 ng/ml of 2′3′-cGAMP (purchased from Invivogen, cat no. tlrl-nacga23, and resuspended in water). THP1 cells treated with conditioned media were incubated for an additional 24 hours. THP1 supernatants were then assessed for NfkB or IRF reporter activity.
HeLa cells were acquired from the ATCC (catalog no. CCL 2.2) and were cultured in DMEM containing 10% FBS. THP1-Dual cells, which are human monocytes that report on both the NfkB and IRF pathways, were purchased from Invivogen (cat no. thpd-nfis) and were cultured in RPMI containing 10% FBS and 100 μg/ml normocin. […]
To measure IRF or NfkB pathway activation, 35,000 THP1-Dual cells/well were seeded in a 96-well plate (100 μl/well). […] After a 24 hour incubation period, IRF and NfkB activity were measured. To measure IRF activity, 50 μl of THP1 supernatant was transferred to a 96-well plate, and 50 μl of QuantiLuc reagent was added to each well immediately prior to reading luminescence by a platereader. […] The plate was then incubated at room temperature for 2-3 hours prior to reading the absorbance at 655 nm.

IFN-beta [1] = assay: IFN-beta secretion from THP1 monocytes (ELISA); assay type: cell-based, human; details: THP1 monocytes exposed to HeLa/PBS conditioned media in combination with 2′3′-cGAMP 300 ng/ml, 24 hours
Description: (§2) HeLa cervical cancer cells were grown in PBS (nutrient-deprivation) for 48 hours. THP1 cells were then treated with the HeLa-PBS (nutrient deprived) conditioned media in the presence and absence of 2′3′-cGAMP. THP1 supernatants were then assayed for the secretion of IFN-beta, a cytokine regulated by IRF. The same experiment was additionally performed using the mouse macrophage cell line J774 in place of the THP1 cells.
(§3) To generate conditioned media, 3 million HeLa cells were seeded in a 10 cm dish in DMEM containing 10% FBS. Cells were left overnight to adhere and then plates were washed 3× with PBS prior to replacing media with either fresh DMEM containing 10% FBS, or with PBS. Cells were incubated for 48 hours, and then the conditioned media was removed, spun down and sterile filtered.
500,000 THP1-Dual cells/well were seeded in a 24-well plate. 500 μl (1:1 dilution) of each condition was added to the well (PBS; PBS+300 ng/ml cGAMP; HeLa-PBS CM; HeLa-PBS CM+300 ng/ml cGAMP) and incubated for 24 hours. Cell supernatants were then spun down and sterile filtered prior to performing ELISA assay. ELISA assay was performed using the human IFN-beta DuoSet ELISA kit (DY814-05) and following the protocol provided by the manufacturer.

IRF = IRF reporter activity in THP1-Dual cells treated with conditioned media and/or compounds (QuantiLuc); assay type: cell-based, human
Description: as §1
HeLa cells were acquired from the ATCC (catalog no. CCL 2.2) and were cultured in DMEM containing 10% FBS. THP1-Dual cells, which are human monocytes that report on both the NfkB and IRF pathways, were purchased from Invivogen (cat no. thpd-nfis) and were cultured in RPMI containing 10% FBS and 100 μg/ml normocin.
as §3
To measure IRF or NfkB pathway activation, 35,000 THP1-Dual cells/well were seeded in a 96-well plate (100 μl/well). 100 μl of HeLa conditioned media was transferred to each well, plus or minus 2′3′-cGAMP (300 ng/ml final concentration). After a 24 hour incubation period, IRF and NfkB activity were measured. To measure IRF activity, 50 μl of THP1 supernatant was transferred to a 96-well plate, and 50 μl of QuantiLuc reagent was added to each well immediately prior to reading luminescence by a platereader. To measure NfkB activity, 50 μl of THP1 supernatant was transferred to a 96-well plate containing 200 μl of QuantiBlue reagent. The plate was then incubated at room temperature for 2-3 hours prior to reading the absorbance at 655 nm.
THP1-Dual cells (acquired from Invivogen) were seeded at 35,000 cells/well in a 96-well plate (100 μl/well). In a separate treatment plate, a 3-fold dose-response curve of each CDN was prepared, starting at 40 μg/ml, in either plain PBS or in combination with HeLa-PBS conditioned media (conditioned media prepared as previously described). 100 μl of compound treatment was transferred to THP1 cells (1:1 dilution) and cells were incubated for 24 hours. THP1 supernatants were subsequently removed and assayed for IRF activity.
THP1-Dual cells were plated at 35,000 cells/well in 96-well format. To each well, 100 μl of conditioned media was added (in triplicate) in the presence or absence of 2′3′-cGAMP (300 ng/ml). THP1-Dual cells were then incubated for 24 hours with conditioned media prior to assaying IRF induction.
THP1-Dual cells (acquired from Invivogen) were seeded at 35,000 cells/well in a 96-well plate (100 μl/well). In a separate treatment plate, a 3-fold dose-response curve of each purinergic receptor antagonist was prepared, starting at 20 μM, in either 2′3′-cGAMP alone or 2′3′-cGAMP in combination with HeLa-PBS conditioned media (conditioned media prepared as described in examples above). 100 μl from the treatment plate was then transferred to THP1 cells (1:1 dilution), and the cells were incubated for 24 hours. THP1 supernatants were removed and tested for IRF activity.
THP1 cells, acquired from Invivogen, were seeded at 35,000 cells/well in 96-well format, in 100 μl media. In a separate treatment plate, a dose curve of PSB 1114, starting at 20 μM, was prepared in either plain PBS, or in the presence of cGAMP. 100 μl from treatment plate was transferred to THP1 cells (1:1 dilution), and cells were incubated for 24 hours prior to IRF and NfkB read-out.
THP1 cells, acquired from Invivogen, were seeded at 35,000 cells/well in 96-well format, in 100 μl media. In a separate treatment plate, a dose curve of Diquafosol (acquired from MedChemExpress), starting at 100 μM, was prepared in either plain PBS, or in the presence of cGAMP. […]

IFN-beta [2] = assay: IFN-beta secretion from J774 macrophages (ELISA); assay type: cell-based, mouse; details: J774 macrophages exposed to HeLa/PBS conditioned media in combination with 2′3′-cGAMP, 24 hours
Description: as §2, §3
The same experiment was additionally performed using J774 cells (ATCC, TIB-67). In brief 500,000 cells/well were seeded in a 24-well plate. After cell adherence, media was refreshed, and HeLa conditioned media was added either in the presence or absence of 2′3′-cGAMP (as described above). After 24 hours J774 supernatant was removed an assayed for IFN-beta secretion as described above.

B16.F10 melanoma = details: Corrales et al., 2015; cited from earlier work
IFN-β = details: PBMCs isolated from multiple donors with different STING genotypes; Corrales et al., 2015; cited from earlier work
[3] = system: A20 B-cell lymphoma tumor cells; assay: Survival in mouse model of A20 B-cell lymphoma; assay type: in vivo, BALB/c mice; details: combination of 1 μg/kg ADU-S100 and 10 mg/animal diquafosol tetrasodium intratumorally once per day (Group 5), relative to either agent alone (Groups 2, 4)
Description: Test BALB/c mice were injected subcutaneously in the right flank with 1×10^6 A20 B-cell lymphoma tumor cells (in a 0.1 mL cell suspension). Sixteen days after tumor cell implantation, on Day 1 of the study, animals were sorted into ten groups (n=10) with individual tumor volumes between 48 and 100 mm^3 and a group mean tumor volume of 81 mm^3. Five groups of mice were dosed according in the following treatment groups.
Group 1 received Vehicle (PBS) intratumorally once per day. • Group 2 received 1 μg/kg of the STING agonist (ADU-S100) intratumorally once per day. • Group 3 received 50 μg/kg of the STING agonist (ADU-S100) intratumorally once per day. • Group 4 received 10 mg/animal of the purinergic receptor agonist (diquafosol testrasodium) intratumorally once per day. • Group 5 received 1 μg/kg ADU-S100 intratumorally combined with 10 mg/animal of diquafosol testrasodium intratumorally once per day.
ADU-S100 and Diquafosol tetrasodum were dosed intratumorally (itu) in a total volume of 50 μL of therapeutic agents; combination therapies were administered as single injections containing 2×25 μL of 2× dosing solutions.
Tumors were measured using calipers twice per week.

human STING alleles = details: HEK293T cells; Corrales et al., 2015; cited from earlier work
CT26 colon carcinoma = details: Corrales et al., 2015; cited from earlier work
4T1 mammary carcinoma = details: Corrales et al., 2015; cited from earlier work
[4] = combination of Diquafosol (dose curve starting at 100 μM) and cGAMP, THP1 cells, 24 hours
[5] = combination of PSB 1114 (dose curve starting at 20 μM) and 2′3′-cGAMP, THP1 cells, 24 hours
[6] = combination of Diquafosol (dose curve starting at 100 μM) and ADU-S100 (2 μM), THP1 cells, 24 hours

For Nc1nc2c(ncn2[C@@H]2O[C@@H]3COP(=O)(O)O[C@H]4[C@@H](O)[C@H](n5cnc6c(N)ncnc65)O[C@@H]4COP(=O)(O)O[C@@H]2[C@@H]3O)c(=O)[nH]1 [2′3′-cGAMP], the NFKB signaling (NfkB; combination of conditioned media from HeLa cells in DMEM+10% FBS (standard culture) and 2′3′-cGAMP 300 ng/ml) was “only slightly induced”, the NFKB signaling (NfkB; combination of nutrient-starved (PBS, 48 hours) HeLa conditioned media and 2′3′-cGAMP 300 ng/ml) was “increased” and the IFN-beta secretion (IFN-beta [1]) was “increased”. For the same molecule, the IRF signaling (IRF; [4]) was “induced IRF signaling”, the IRF signaling (IRF; [5]) was “induced IRF signaling” and the IRF signaling (IRF; combination of conditioned media from HeLa cells in DMEM+10% FBS (standard culture) and 2′3′-cGAMP 300 ng/ml, THP1-Dual cells, 24 hours) was “only slightly induced”. The IRF signaling (IRF; combination of nutrient-starved (PBS, 48 hours) HeLa conditioned media and 2′3′-cGAMP 300 ng/ml, THP1-Dual cells, 24 hours) was “increased”, the IRF signaling (IRF; combinations of cGAMP with purinergic receptor agonist nucleotide triphosphates, human monocytes, data not shown) was “induced IRF signaling” and the IRF activation (IRF; conditioned media (PBS, 48 hours) of A549, A427, J774, AMJ2C11, PANC1, MLE12, RAW264, Calu-1, MCF7 cells in combination with 2′3′-cGAMP 300 ng/ml, THP1-Dual cells, 24 hours) was “induced IRF activation”. For the same molecule, the IFN-beta secretion (IFN-beta [2]) was “increased”.

In the case of Nc1ncnc2c1ncn2[C@@H]1O[C@@H]2COP(=O)([S-])O[C@@H]3[C@H](O)[C@@H](COP([O-])(=S)O[C@H]2[C@H]1O)O[C@H]3n1cnc2c(N)ncnc21.[Na+].[Na+] (some centres unmarked) [ADU-S100], the “antitumor immune response and tumor regression” value (B16.F10 melanoma) is listed as “potent antitumor immune response and significant tumor regression”, the “expression of IFN-β” value (IFN-β) is listed as “induced dose-dependent expression of IFN-β” and the survival [3] is listed as “much greater effect on increasing survival”. For the same molecule, the STING activation (human STING alleles) was “broadly activate all known human STING alleles”, the “antitumor immune response and tumor regression” value (CT26 colon carcinoma) was “potent antitumor immune response and significant tumor regression” and the IRF signaling (IRF; combination of ADU-S100 (dose curve starting at 20 μM) and nutrient starved (PBS) HeLa conditioned media, THP1 cells, 24 hours) was “strongly increased IRF signaling”. The IRF signaling (IRF; [6]) was “synergizes” and the “antitumor immune response and tumor regression” value (4T1 mammary carcinoma) was “potent antitumor immune response and significant tumor regression”.

With Cc1ccc2c(c1)C=Cc1cc(C)ccc1C2c1cn(Cc2ccc(C(=O)Nc3nn[nH]n3)o2)c(=O)[nH]c1=S [AR-C 118925] the “synergistic induction of IRF activity by cGAMP in combination with HeLa-PBS conditioned media” value (IRF; purinergic receptor antagonist 3-fold dose-response starting at 20 μM, THP1-Dual cells, 24 hours) was “inhibited”.

With O=c1ccn([C@@H]2O[C@H](COP(=O)(O)OP(=O)(O)OP(=O)(O)OP(=O)(O)OC[C@H]3O[C@@H](n4ccc(=O)[nH]c4=O)[C@H](O)[C@@H]3O)[C@@H](O)[C@H]2O)c(=O)[nH]1 [Diquafosol] the survival [3] was “much greater effect on increasing survival”, the IRF signaling (IRF; [6]) was “synergizes” and the IRF signaling (IRF; [4]) was “induced IRF signaling”.

With O=c1[nH]c(=S)ccn1[C@@H]1O[C@H](COP(=O)(O)OP(=O)(O)C(F)(F)P(=O)(O)O)[C@@H](O)[C@H]1O [PSB 1114] the IRF signaling (IRF; [5]) was “induced IRF signaling”.

Reference: US11376272B2, “Methods of modulating immune activity” (Flagship Pioneering Innovations V, Inc., priority 2019, dated 2022)
